Results reported in publication PMC3364000 (Vaccine, 2009).
Peptide text beside a SMILES is read from it.

Legend:
Assay in all cases: biochemical
Type in all cases: binding
[1] = molecular target: HLA-DRB1*0301 (Homo sapiens, UniProt P01903+P01911, A100K/A102G/A103R/A169T/F55Y/I96L/K41T/L162R/M171V/P40S/Q125H/Q178H/Q39Y/R42S/S66N/T106N/T262R/W38E/Y61H)
[2] = molecular target: HLA-DRB5*0101 (Homo sapiens, UniProt P01903+Q30154)
[3] = molecular target: HLA-DRB1*0101 (Homo sapiens, UniProt P01903+P01911, A100R/D57E/F55L/F60I/F76Y/I96L/L162R/M171V/P40L/Q125E/R42F/V115G/Y59C)
[4] = molecular target: HLA-DRB1*0401 (Homo sapiens, UniProt P01903+P01911, A100K/A169T/F76Y/I96L/K127E/L162R/M171V/N62H/P40V/Q125Y/R42H/S133A/S149N/S66Y/V115G/V209L/W38E)
[5] = molecular target: HLA-DRB1*0404 (Homo sapiens, UniProt P01903+P01911, A100R/A169T/F76Y/I96L/K127E/L162R/M171V/N62H/P40V/Q125Y/R42H/S133A/S149N/S66Y/V209L/W38E)
[6] = molecular target: HLA-DRB1*0405 (Homo sapiens, UniProt P01903+P01911, A100R/A169T/D86S/F76Y/I96L/K127E/L162R/M171V/N62H/P40V/Q125Y/R42H/S133A/S149N/S66Y/V115G/V209L/W38E)
[7] = molecular target: HLA-DRB1*0701 (Homo sapiens, UniProt P01903+P01911, A100R/A102G/A103Q/D57E/D86V/E43K/F76Y/K127E/L162R/M171V/P40G/Q125H/Q99D/R33Q/R42Y/R54Q/S133A/S66F/T210M/V115G/Y107V/Y59L/Y89S)
[8] = molecular target: HLA-DRB1*0802 (Homo sapiens, UniProt P01903+P01911, A100R/A103L/A169T/F76Y/H45Y/I96F/K41T/L162R/M171V/P40S/Q125H/Q178H/Q39Y/Q99D/R218S/R42G/S66Y/V115G/W38E)
[9] = molecular target: HLA-DRB1*0901 (Homo sapiens, UniProt P01903+P01911, A100R/A103E/D57H/D86V/F55Y/F60I/F76Y/I96F/K127E/L162R/M171V/P40D/Q125H/Q99R/R33Q/R42F/S133A/S66N/T210M/V115G/W38K/Y107V/Y59G/Y89S)
[10] = molecular target: HLA-DRB1*1101 (Homo sapiens, UniProt P01903+P01911, A100R/A169T/A87E/I96F/K41T/L162R/M171V/P40S/Q125H/Q178H/Q39Y/Q99D/R42S/S66Y/T262R/V115G/W38E)
HLA-DRB1*1101, sequence (P01903 26-254 limits assumed, other chains not shown): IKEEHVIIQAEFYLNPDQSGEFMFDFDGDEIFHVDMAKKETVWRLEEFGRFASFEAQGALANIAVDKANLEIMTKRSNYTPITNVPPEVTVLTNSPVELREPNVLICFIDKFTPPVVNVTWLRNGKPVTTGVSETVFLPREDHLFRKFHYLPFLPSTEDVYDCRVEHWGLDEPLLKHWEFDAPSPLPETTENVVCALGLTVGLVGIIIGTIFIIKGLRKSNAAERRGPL

[11] = molecular target: HLA-DRB1*1302 (Homo sapiens, UniProt P01903+P01911, A100E/A169T/K41T/L162R/M171V/P40S/Q125H/Q178H/Q39Y/Q99D/R42S/S66N/T262R/V115G/W38E/Y61H)
HLA-DRB1*1302, sequence (P01903 26-254 limits assumed, other chains not shown): as above

[12] = molecular target: HLA-DRB1*1501 (Homo sapiens, UniProt P01903+P01911)
[13] = molecular target: HLA-DRB4*0101 (Homo sapiens, UniProt P01903+P13762, G164S)

HLA-DRB1*0301, sequence (P01903 26-254, other chains not shown): as the sequence (P01903 26-254 limits assumed, other chains not shown) above

Compound CC[C@H](C)[C@H](NC(=O)CNC(=O)[C@@H](NC(=O)[C@@H](NC(=O)[C@H](CO)NC(=O)[C@H](C)NC(=O)[C@H](C)NC(=O)[C@@H](NC(=O)[C@@H](NC(=O)[C@H](CC(C)C)NC(=O)[C@@H]1CCCN1C(=O)[C@@H](N)CC(=O)O)C(C)C)C(C)C)[C@@H](C)CC)[C@@H](C)CC)C(=O)N[C@@H](CC(C)C)C(=O)N[C@@H](Cc1c[nH]cn1)C(=O)N[C@@H](CC(C)C)C(=O)O [M2.24] has an IC50 [1] of over 10000 nM and an IC50 [2] of over 10000 nM.
CC[C@H](C)[C@H](N)C(=O)NCC(=O)N[C@@H](CCCNC(=N)N)C(=O)N[C@@H](Cc1ccccc1)C(=O)N[C@@H](Cc1ccc(O)cc1)C(=O)N[C@H](C(=O)N[C@@H](CCC(N)=O)C(=O)N[C@@H](CCSC)C(=O)N[C@@H](CS)C(=O)N[C@H](C(=O)N[C@@H](CCC(=O)O)C(=O)N[C@@H](CC(C)C)C(=O)N[C@@H](CCCCN)C(=O)N[C@@H](CC(C)C)C(=O)N[C@@H](CO)C(=O)N[C@@H](CC(=O)O)C(=O)N[C@@H](Cc1ccc(O)cc1)C(=O)N[C@@H](CCC(=O)O)C(=O)NCC(=O)O)[C@@H](C)O)[C@@H](C)CC [NP.36] (H-IGRFYIQMCTELKLSDYEG-OH) gave an IC50 [3] of 31 nM, an IC50 [1] of 291 nM and an IC50 [4] of 53 nM. It also gave an IC50 [5] of 116 nM, an IC50 [6] of 29 nM and an IC50 [7] of 443 nM. The IC50 [8] was 486 nM, the IC50 [9] was 193 nM and the IC50 [10] was 236 nM. For the same compound, the IC50 [11] was 2700 nM, the IC50 [12] was 23 nM and the IC50 [13] was 210 nM. The IC50 [2] was 28 nM.
CC[C@H](C)[C@H](NC(=O)[C@H](CO)NC(=O)[C@H](CC(N)=O)NC(=O)[C@@H](N)CCC(N)=O)C(=O)N[C@H](C(=O)N[C@H](C(=O)N[C@@H](CCC(=O)O)C(=O)N[C@@H](CCCNC(=N)N)C(=O)N[C@@H](CCSC)C(=O)N[C@H](C(=O)N[C@@H](CC(C)C)C(=O)N[C@@H](CO)C(=O)N[C@@H](C)C(=O)N[C@@H](Cc1ccccc1)C(=O)N[C@@H](CC(=O)O)C(=O)O)C(C)C)[C@@H](C)CC)[C@@H](C)O [NP.58] was tested, and the IC50 [5] was 188 nM and the IC50 [2] was over 10000 nM.
In the case of CSCC[C@H](NC(=O)[C@H](Cc1c[nH]c2ccccc12)NC(=O)[C@@H](NC(=O)[C@H](CC(C)C)NC(=O)[C@H](CCC(N)=O)NC(=O)[C@H](CO)NC(=O)[C@@H](N)CCCCN)C(C)C)C(=O)N[C@@H](C)C(=O)N[C@@H](CS)C(=O)N[C@@H](Cc1c[nH]cn1)C(=O)N[C@@H](CO)C(=O)N[C@@H](C)C(=O)N[C@@H](C)C(=O)N[C@@H](Cc1ccccc1)C(=O)N[C@@H](CCC(=O)O)C(=O)O [NP.325], the IC50 [3] is reported as 35 nM, the IC50 [5] is reported as 34 nM and the IC50 [11] is reported as over 10000 nM.
Work on CC[C@H](C)[C@H](NC(=O)[C@H](C)NC(=O)CNC(=O)[C@@H](N)CCC(=O)O)C(=O)N[C@H](C(=O)NCC(=O)N[C@@H](CCC(=O)O)C(=O)N[C@H](C(=O)N[C@@H](CO)C(=O)N1CCC[C@H]1C(=O)N[C@@H](CC(C)C)C(=O)N1CCC[C@H]1C(=O)N[C@@H](CO)C(=O)N[C@@H](CC(C)C)C(=O)N1CCC[C@H]1C(=O)NCC(=O)N[C@@H](Cc1c[nH]cn1)C(=O)N[C@H](C(=O)N[C@@H](CC(=O)O)C(=O)O)[C@@H](C)O)[C@@H](C)CC)C(C)C [NS1.153] yielded an IC50 [3] of 64 nM, an IC50 [1] of 8330 nM and an IC50 [4] of 14 nM. The IC50 [5] was 6 nM, the IC50 [6] was 98 nM and the IC50 [7] was over 10000 nM. It also gave an IC50 [8] of 227 nM, an IC50 [9] of 6360 nM and an IC50 [10] of 88 nM. It also gave an IC50 [11] of 1770 nM, an IC50 [12] of 7 nM and an IC50 [13] of 131 nM. For the same compound, the IC50 [2] was 1140 nM.
In the case of CC[C@H](C)[C@H](NC(=O)[C@H](CCC(N)=O)NC(=O)[C@H](CCC(=O)O)NC(=O)[C@@H](N)Cc1ccccc1)C(=O)N[C@H](C(=O)N[C@@H](Cc1ccccc1)C(=O)N[C@@H](CCSC)C(=O)N[C@@H](CCC(N)=O)C(=O)N[C@@H](C)C(=O)N[C@@H](CC(C)C)C(=O)N[C@@H](CCC(N)=O)C(=O)N[C@@H](CC(C)C)C(=O)N[C@@H](CC(C)C)C(=O)N[C@@H](CC(C)C)C(=O)N[C@@H](CCC(=O)O)C(=O)O)[C@@H](C)O [NS2.94], the IC50 [12] is reported as 10 nM.
For CC[C@H](C)[C@H](NC(=O)[C@H](CCCCN)NC(=O)[C@H](CC(N)=O)NC(=O)[C@H](C)NC(=O)[C@H](CCCCN)NC(=O)[C@H](CCC(=O)O)NC(=O)[C@H](CC(C)C)NC(=O)[C@H](Cc1ccc(O)cc1)NC(=O)[C@H](Cc1ccc(O)cc1)NC(=O)[C@@H](NC(=O)[C@H](Cc1c[nH]cn1)NC(=O)[C@@H](NC(=O)[C@H](CCC(=O)O)NC(=O)[C@H](CCCNC(=N)N)NC(=O)[C@@H](N)CCCNC(=N)N)C(C)C)[C@@H](C)CC)C(=O)O [PA.124], the IC50 [1] was over 10000 nM and the IC50 [12] was 4 nM.
